In publication PMC6707405, “Screening Bioactive Compounds of Siraitia grosvenorii by Immobilized β2-Adrenergic Receptor Chromatography and Druggability Evaluation” (Frontiers in Pharmacology, 2019):
Where two headings read alike, the source gives them in different places.

Key:
[1] = system: rat tracheal smooth muscle pre-contracted by high K+ solution; assay: Relaxation of isolated rat tracheal strips pre-contracted by high K+ solution, with or without ICI 118551; assay type: cell-based; conditions: 0.1 μM to 1.0 mM, high K+ (60 mM) pre-contracted
Description: The potential β2-AR-mediating relaxant mechanisms of the compound were also evaluated in the absence and presence of a specific inhibitor. This was performed with the scarification of rats weighing 250–300 g by exsanguination from the abdominal aorta. We collected the tracheal tissues between the larynx and the lungs and immediately immersed them in cold oxygenated Krebs solution (118 mM NaCl, 4.8 mM KCl, 2.5 mM CaCl2, 1.2 mM MgSO4, 25 mM NaHCO3, 1.2 mM KH2PO4, and 9.8 mM glucose; pH 7.4). After the removal of adhesive tissues, we spirally isolated the tracheal segment with three cartilage rings to assay the tracheal strip reactivity. Such strips were mounted onto two L-shaped stainless-steel holders connected with a force–displacement transducer. The isometric tension was determined in a tissue bath by a PowerLab data acquisition system.
We aerated the pre-warmed Krebs solution (37°C) with a gas mixture of 95% O2 and 5% CO2. At initial tests, the tracheal strips with tensions of 1.0-g mass were equilibrated for 60 min. The resulting strips were stimulated with high-potassium (K^+) solution (63 mM NaCl, 60 mM KCl, 2.5 mM CaCl2, 1.2 mM MgSO4, 25 mM NaHCO3, 1.2 mM KH2PO4, and 9.8 mM glucose; pH 7.4) to evoke a contractile response in the presence or absence of ICI 118551 (10 μM). […]

[2] = Stability of mogroside V in rat plasma (QC samples, HPLC-MS/MS); assay type: in vitro ADME; conditions: for Short term Stability (%): room temperature 14 h; for Long term Stability (%): −20°C 1 month; for Freeze–thaw Stability (%): three freeze (−20°C) and thaw cycles
Description: The stability of mogroside V in plasma was evaluated at three QC levels in six replicates under varieties of storing and processing conditions. The results of the peak area of QC samples were compared with those from freshly prepared standard samples. The QC samples with recoveries of 85–115% were defined as having good stability under the desired conditions. Short-term stability was assessed after QC samples were saved at room temperature for 14 h. Subsequently, freeze–thaw stability was assessed after three freeze (−20°C) and thaw (room temperature) cycles of QC samples. Long-term stability was examined after QC samples were saved at −20°C for 1 month.

[3] = Pharmacokinetic study in rats after oral administration (HPLC-MS/MS); assay type: in vivo, Sprague–Dawley (SD) rats; conditions: mogroside V 200 mg/kg or LHG extract 12.5 ml/kg
Description: Male Sprague–Dawley (SD) rats (240 ± 20 g) were purchased from the Experimental Animal Center of Xi’an Jiaotong University (Xi’an, China). The animals were maintained in a room under controlled temperature (24 ± 1°C) and humidity (50–70%) with 12-h light/dark cycle. The rats were fed with standard laboratory food and acclimatized to the environment for a week before the experiment. All animals were treated in accordance with the Guide for the Care and Use of Laboratory Animals under the approval of the Animal Experimentation Ethics Committee at Northwest University.
All the plasma samples were analyzed on an Inertsil ODS-3-C18 column (5 μm, 4.6 mm × 150 mm). The mobile phase for quantitative determination of mogroside V in rat plasma consisted of 29% acetonitrile/0.2% (v/v) formic acid at a flow rate of 0.6 ml/min. The injection volume was 20 μl under a detection wavelength of 203 nm.
The optimized mass conditions include the following: capillary voltage of 3,500 V, drying gas of 8 L/min at 350°C, nebulizer pressure of 40 psi at 350°C, and ion scan range of 100–2,000 amu. Under these conditions, multi-reaction monitoring (MRM) mode was carried out to specifically and sensitively detect the mogroside V. The mass transitions were m/z 1,285.6 → 1,123.6 for mogroside V and m/z 931.3 → 637.5 for IS (notoginsenoside R1).
An aliquot of 10 μl of IS working solution was added into an aliquot of 90 μl of plasma samples. Vortexing the mixture for 2.0 min, we centrifuged the plasma for 10 min with a speed of 12,000 rpm at a temperature of 4°C. The supernatant was collected and transferred to another 0.5-ml centrifuge tube and then blow dried with nitrogen. We applied 200 μl of methanol to redissolve it, which was used for analysis.
Eighteen rats were randomly divided into three groups of six for each group, including blank control, mogroside V, and LHG groups. The blank group was orally administered with normal saline. The other two groups were administered with mogroside V at a dose of 200 mg/kg and LHG aqueous extraction at a dose of 12.5 ml/kg (equivalent to 200 mg/kg mogroside V). Blood samples were collected in heparin sodium vacutainers at post-dose 5, 15, 30, 45, 60, 90, 120, 240, 360, 480, and 720 min. The plasma was pre-treated by centrifugation and frozen at −80°C until further analysis. The pharmacokinetic parameters including the area under curve (AUC0–720, and AUC0–∞), the maximum plasma concentration (Cmax), the time to achieve maximum plasma concentration (T max), and the elimination half-life (t 1/2z) were calculated by Drug and Statistics 3.0.0 software (DAS, T. C. M., Shanghai, China). All data were recorded as the mean ± standard deviation (SD), and the 95% confidence interval was also estimated when necessary.

[4] = biological target: immobilized β2-AR (Homo sapiens, UniProt P07550)
[5] = cited from earlier work
[6] = system: cough of mice; conditions: ref Liu et al., 2007; cited from earlier work
[7] = system: mice trachea; set-up: method as in Liu et al., 2007; conditions: ref Liu et al., 2007; cited from earlier work
[8] = system: ileum and trachea; set-up: method as in Liu et al., 2007; conditions: histamine-induced; ref Liu et al., 2007; cited from earlier work
[9] = dose 200 mg/kg, ref Qin et al. (2006); cited from earlier work
[10] = male, Sprague-Dawley, rat, in vivo, mogroside V in plasma

immobilized β2-AR, sequence (P07550 whole entry): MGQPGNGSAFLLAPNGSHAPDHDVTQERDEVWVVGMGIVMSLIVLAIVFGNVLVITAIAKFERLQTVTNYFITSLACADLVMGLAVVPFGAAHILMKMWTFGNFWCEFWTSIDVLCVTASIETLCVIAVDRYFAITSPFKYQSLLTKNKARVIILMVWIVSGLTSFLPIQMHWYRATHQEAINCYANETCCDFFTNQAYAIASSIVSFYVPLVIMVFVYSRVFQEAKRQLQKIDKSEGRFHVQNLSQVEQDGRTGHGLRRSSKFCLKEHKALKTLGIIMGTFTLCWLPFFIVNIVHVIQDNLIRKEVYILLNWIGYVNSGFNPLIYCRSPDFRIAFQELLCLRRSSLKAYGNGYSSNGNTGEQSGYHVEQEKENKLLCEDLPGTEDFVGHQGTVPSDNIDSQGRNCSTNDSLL

C[C@H](CC[C@@H](O[C@@H]1O[C@H](CO[C@@H]2O[C@H](CO)[C@@H](O)[C@H](O)[C@H]2O)[C@@H](O)[C@H](O)[C@H]1O[C@@H]1O[C@H](CO)[C@@H](O)[C@H](O)[C@H]1O)C(C)(C)O)[C@H]1CC[C@@]2(C)[C@@H]3CC=C4[C@@H](CC[C@H](O[C@@H]5O[C@H](CO[C@@H]6O[C@H](CO)[C@@H](O)[C@H](O)[C@H]6O)[C@@H](O)[C@H](O)[C@H]5O)C4(C)C)[C@]3(C)[C@H](O)C[C@]12C [Mogroside V]
relaxation of tracheal strips ([1]; absence of ICI 118551): concentration-dependent manner
relaxation of tracheal strips ([1]; presence of ICI 118551 (10 μM)): disappeared
Short term Stability (%) ([2]; rat plasma, 30 ng/ml added): 94.8%
Long term Stability (%) ([2]; rat plasma, 30 ng/ml added): 94.4%
Short term Stability (%) ([2]; rat plasma, 500 ng/ml added): 94.8%
Freeze–thaw Stability (%) ([2]; rat plasma, 500 ng/ml added): 95.4%
Long term Stability (%) ([2]; rat plasma, 500 ng/ml added): 93.8%
Short term Stability (%) ([2]; rat plasma, 5,000 ng/ml added): 93.2%
Freeze–thaw Stability (%) ([2]; rat plasma, 5,000 ng/ml added): 96.6%
Long term Stability (%) ([2]; rat plasma, 5,000 ng/ml added): 92.2%
Cmax [3, 10]: 1330 ng/mL
Tmax [3, 10]: 0.75 h
half-life ([3]; male, Sprague-Dawley, rat, in vivo, mogroside V in plasma, read-out: t1/2z): 2.31 ± 0.22 h
peak plasma concentration [3]: 1,330.6 ± 132.2 ng/ml
retention time of LHG extract peak on immobilized β2-AR column, identified as mogroside V ([4]; ammonium acetate buffer (5 mM, pH = 7.4), 0.2 ml/min, 203 nm, void time 0.7 min): 4.3 min
detection in rat plasma ([5]; oral administration, dose increased to 5 mg/kg, ref Luo, 2017): disappears
detection in rat plasma ([5]; tail intravenous injection (1.12 or 2.0 mg/kg) and intraperitoneal administration (1.12 mg/kg), ref Zhou et al., 2018): detectable
cough times of mice [6]: reducing the cough times
incubation period for cough of mice [6]: prolonged
phenol red excretion of mice trachea [7]: effective for extending
spasmodic contraction of the ileum and trachea caused by histamine [8]: obvious capability to antagonize
toxicity after oral administration [9]: nontoxic

COc1cc2nc(N3CCN(C(=O)C4CCCO4)CC3)nc(N)c2cc1OC (stereo not drawn) [terazosin]
retention time on immobilized β2-AR column ([4]; mobile phase ammonium acetate (5 mM, pH = 7.4), each injected three times): 1.0 min

O=N[O-].[Na+] [sodium nitrite, Sodium nitrite]
retention time on immobilized β2-AR column [4]: 0.7 min
